In publication PMC11504387, “Synthesis and Biological Activity Assessment of 2-Styrylbenzothiazoles as Potential Multifunctional Therapeutic Agents” (Antioxidants, 2024):
Marks after values point to notes of the source that are not given here.

Tests used:
[1] = In vitro filtering parameters of O/W sunscreen formulation on PMMA plates; conditions: 3% in O/W sunscreen formulation
Procedure: Synthesized compounds were incorporated at 3% concentration in a suitable oil-in-water (O/W) emulsion for cosmetic use as sunscreen.
INCI: Aqua, Glycerin, Xanthan Gum, Phenoxyethanol (and) Ethylhexylglycerin, Tribehenin PEG-20 Esters, Cetearyl Alcohol, Dicaprylyl Carbonate, PPG 26 Buteth-26 (and) PEG 40 Hydrogenated Castor Oil, C12-15 Alkyl Benzoate, Sodium hydroxide (sol. 10%).
A protocol previously reported by us was adopted. Briefly, 32.5 mg of each compound formulation was spread on the rough surface of 5 × 5 cm^2 PMMA plates in the form of small drops of approximately equal mass, in triplicate. The plates were placed in the dark for 15–30 min to allow the formation of a sun-stabilised standard layer and then inserted into the instrument and measured at five different points on each plate (UV transmittance range 290–400 nm). The blank was a plate coated with 32.5 mg glycerine, chosen for its non-fluorescence and UV transparency. In addition, in vitro SPF, UVAPF and ʎc values were calculated according to Equations (2)–(4) above. To evaluate the booster effect of selected synthesized compounds, they were incorporated at 3% concentration in an oil-in-water (O/W) sunscreen formulation with fixed SPF and UVAPf values (30 and 10, respectively).
Aiming to create compounds with diverse biological activities, the synthesized 2-styrylbenzothiazoles were examined for potential applications in sunscreens. Each candidate was incorporated into a standard cosmetic formulation at a concentration of 3% and subjected to photoprotective efficacy testing using the Diffey–Robson method. The formulation comprised an oil-in-water (O/W) emulsion suitable for sunscreen use, with each benzothiazole derivative being heat-solubilized in the oil phase and then dispersed into the emulsion using a turbo emulsifier. The mixture was then cooled, and the emulsion was spread onto polymethylmethacrylate (PMMA) plates before recording the transmittance spectra. The SPF value, UVA protection factor value (UVAPF), the […], and the critical wavelength (λc) were determined from the transmittance spectra using SPF calculator software and are presented in Table 3. These parameters are essential for evaluating the efficacy of potential sunscreen products.

[2] = Photostability of O/W emulsions under solar simulator; type: physicochemical; conditions: for Photostability (classification, threshold 80%): O/W emulsion, solar irradiation; for %UVAPfeff.: residual UVAPF after solar irradiation; for %UVAPfeff. / %SPFeff.: O/W emulsion on PMMA; for %SPFeff.: residual in vitro SPF after solar irradiation
Procedure: Oil-in-water (O/W) emulsions containing individual filters were spread on PMMA sheet and irradiated with a solar simulator by applying different doses of UVA equivalent to an erythema effective radiant exposure of 100 J/m^2. Photostability was assessed by analysing the spectral transmittance, before and after irradiation, of the sunscreen thin film, measured before and after exposure from 290 to 400 nm. The residual percentages of SPF in vitro (%SPFeff.) and UVAPF (%UVAPFeff.) were calculated according to Equations (6) and (7), respectively. When the %SPFeff. and %UVAPFeff. are greater than or equal to 80, according to current regulations, a filter can be considered photostable [37].
To evaluate the effectiveness and safety profile of a sunscreen formulation, it is necessary to provide data on its photostability. Photodegradation data can be obtained by recording the pre- and post-irradiation transmittance spectra of PMMA plates with finger-coat formulations exposed to a dose of UVA capable of causing erythema. This method, established by Garoli et al., is used to determine photostability. The sun protection layer’s transmission in the range of 290–400 nm is recorded before and after exposure to sunlight, following the protocol.
The residual percentages of SPF in vitro (%SPFeff.) and UVAPf (%UVAPfeff.) were calculated using Equations (6) and (7) and are listed in Table 4. A filter can be classified as photostable if the %SPFeff. is greater than or equal to 80, according to regulatory standards. %SPFeff. = in vitro SPFafter/in vitro SPFbefore × 100(6) %UVAPfeff. = UVAPfafter/UVAPfbefore × 100(7) where SPFafter and SPFbefore are the SPF values calculated from the software after and before solar irradiation, and UVAPfafter and UVAPfbefore are the UVAPf values calculated from the software after and before solar irradiation.

[3] = system: human melanoma Colo38 cells; assay: Cell growth inhibition assay, Colo38; type: cell-based; conditions: for IC50: Homo sapiens, 24 h incubation, mean ± SD; for SI (selectivity index): IC50 HaCat / IC50 Colo38
Procedure: Cell growth inhibition analyses were performed on human melanoma Colo38 cells and skin HaCat keratinocytes. Human melanoma Colo38 cells were kindly given by Dr. Patrizio Giacomini (Laboratory of Immunology, Regina Elena Institute, Rome, Italy). HaCat cells were obtained from Istituto Zooprofilattico Sperimentale della Lombardia e dell’Emilia-Romagna, Brescia, Italy. Cells were seeded at 40,000 cells/mL and 25,000 cells/mL, respectively. Colo38 cells were maintained in RPMI 1640, supplemented with 10% foetal bovine serum (FBS), penicillin (100 Units/mL), and streptomycin (100 µg/mL). HaCat cells were maintained in DMEM, supplemented with 10% fatal bovine serum (FBS), penicillin (100 Units/mL), streptomycin (100 µg/mL) and glutamine (2 mM); the incubation was performed at 37 °C in a 5% CO2 atmosphere. Compounds were dissolved in DMSO to obtain 50 mM stock solutions and diluted before cell treatment in MeOH. The tested compounds were added at serial dilutions to the cell cultures (from 0.1 to 100 µM) and incubated for 24 h further. Cells were then harvested, suspended in physiological solution, and counted with a Z2 Coulter Counter (Coulter Electronics, Hialeah, FL, USA). The number of cells/mL and the IC50 values were determined when untreated cells were in the log phase of cell growth. Samples of vehicles and untreated cells were included in each plate. Cisplatin was used as positive control for the HaCat cells, while N1-(4-arylidene)-1H-(2-OH-4-N(Et)2-phenyl)-[d]imidazole-2-carbohydrazide was used as positive control for the Colo38 cell line.

PMNL = assay: ROS production in PMA-stimulated PMNL; type: cell-based, human; conditions: 10 µM; for ROS Production (% of Control): mean ± SD
Procedure: After 10 min at 37 °C, PMA (0.1 μM) was added. The fluorescence emission at 530 nm was measured after excitation at 485 nm in a thermally controlled (37 °C) NOVOstar microplate reader (BMG Lab technologies GmbH, Offenburg, Germany). […] ROS generation was induced by phorbol-12-myristate-13-acetate (PMA), a widely recognized agent for stimulating ROS production in neutrophils and enhancing endogenous superoxide formation. Diphenyleneiodonium (DPI, 10 µM), a NADPH oxidase inhibitor, served as a positive control. Through this assay, we could assess the potential interaction of our compounds with intracellular ROS production and their capacity to act as radical scavengers within a relevant cellular context. Furthermore, the outcomes provided additional insights into their inhibitory mechanism and helped to determine whether they act directly or non-specifically, as there is evidence that an impact on the ROS levels in PMNL could be translated to modulation of 5-LO activity in the cellular environment. […] With those data in hand, together with 5-LO inhibition assay outcomes, a direct inhibition of the enzyme stands as the best fitting option regarding the mechanism of action of compounds BZTst4 and BZTst6. […] This phenomenon was not further explored because such investigation was beyond the scope of this work.

| Structure (SMILES) | ʎc (critical wavelength) [1] | Photostability (classification, threshold 80%) [2] | %UVAPfeff. [2] | %SPFeff. [2] | IC50 [3] | SPF [1] | UVA/UVB [1] | UVAPF [1] | SI (selectivity index) [3] | Lowering of ROS production (PMNL) | ROS Production (% of Control) (PMNL) | Effect on ROS production (in words) (PMNL) |
| --- | --- | --- | --- | --- | --- | --- | --- | --- | --- | --- | --- | --- |
| C(=C\c1nc2ccccc2s1)/c1ccccc1 [BZTst1, (E)-2-styrylbenzo[d]thiazole] | 364 nm | cannot be considered photostable | 54.38% | 99.14% | 85.6 ± 2.76 µM | 13.88 | 0.96 | 7.08 | >1.17 |  | 124.78 ± 17.88 % of control | do not display any significant interference |
| Oc1ccc(/C=C/c2nc3ccccc3s2)cc1 [BZTst2, (E)-4-(2-(benzo[d]thiazol-2-yl)vinyl)phenol] | 384 nm |  | 95.96% | 104.43% | 79.8 ± 4.7 µM | 2.59 | 1.46 | 5.69 | 1.07 |  | >150% ^a % of control | unexpected rise in the ROS level |
| COc1ccc(/C=C/c2nc3ccccc3s2)cc1 [BZTst3, (E)-2-(4-methoxystyryl)benzo[d]thiazole] | 378 nm |  | 152.12% | 103.21% | > 100 µM | 2.26 | 1.59 | 3.07 |  |  | 108.70 ± 12.15 % of control | do not display any significant interference |

The next lines start with results.

| ʎc (critical wavelength) [1] | Photostability (classification, threshold 80%) [2] | %UVAPfeff. [2] | %SPFeff. [2] | IC50 [3] | Structure (SMILES) | SPF [1] | UVA/UVB [1] | UVAPF [1] | SI (selectivity index) [3] | Lowering of ROS production (PMNL) | ROS Production (% of Control) (PMNL) | Effect on ROS production (in words) (PMNL) |
| --- | --- | --- | --- | --- | --- | --- | --- | --- | --- | --- | --- | --- |
| 388 nm | photostable | 80.75% | 93.59% | 71.5 ± 14.2 µM | COc1cc(/C=C/c2nc3ccccc3s2)ccc1O [BZTst6, (E)-4-(2-(benzo[d]thiazol-2-yl)vinyl)-2-methoxyphenol] | 3.43 | 1.96 | 14.13 | >1.40 | < 50% | 62.50 ± 5.62 % of control |  |
| 384 nm |  | 106.30% | 100.00% | > 100 µM | COc1ccc(/C=C/c2nc3ccccc3s2)cc1O [BZTst5, (E)-5-(2-(benzo[d]thiazol-2-yl)vinyl)-2-methoxyphenol] | 2.91 | 0.93 | 2.70 | <1 |  | 99.62 ± 4.14 % of control | do not display any significant interference |
| 389 nm |  | 101.57% | 104.02% | 58.1 ± 12.1 µM | Oc1ccc(/C=C/c2nc3ccccc3s2)cc1O [BZTst4, (E)-4-(2-(benzo[d]thiazol-2-yl)vinyl)benzene-1,2-diol] | 3.87 | 1.47 | 7.65 | 1.38 | < 50% | 53.81 ± 16.30 % of control |  |
